Entries after “also recorded” stand apart in the source; their conditions may differ.
Legend:
[1] = tested on: mouse brain; details: in vivo
Procedure: To measure brain uptake of the exendin-4/Angiopep-2 conjugates, we used an in situ perfusion assay. […] The uptake of labeled exendin-4 and the exendin-4/Angiopep-2 conjugates was measured using the in situ brain perfusion method adapted in our laboratory for the study of drug uptake in the mouse brain (Dagenais et al., J Cereb Blood Flow Metab. 20:381-6, 2000; Cisternino et al., Pharm Res 18, 183-190, 2001). Briefly, the right common carotid artery of mice anesthetized with ketamine/xylazine (140/8 mg/kg i.p.) was exposed and ligated at the level of the bifurcation of the common carotid, rostral to the occipital artery. The common carotid was then catheterized rostrally with polyethylene tubing filled with heparin (25 U/ml) and mounted on a 26-gauge needle. The syringe containing the perfusion fluid ([^125I]-proteins or [^125I]-peptides in Krebs/bicarbonate buffer at pH 7.4, gassed with 95% O2 and 5% CO2) was placed in an infusion pump (Harvard pump PHD 2000; Harvard Apparatus) and connected to the catheter. Prior to the perfusion, the contralateral blood flow contribution was eliminated by severing the heart ventricles. The brain was perfused for 5 min at a flow rate of 1.15 ml/min. After perfusion of radiolabeled molecules, the brain was further perfused for 60 s with Krebs buffer, to wash away excess [^125I]-proteins. […]

[2] = tested on: ob/ob mice; experiment: treatment of obese (ob/ob) mice with exendin-4/Angiopep-2 conjugate; assay type: in vivo, mouse; details: Q1D, higher doses (exendin-4 30 μg/kg, Exen-An2 48 μg/kg), vs control
Procedure: Obese mice (ob/ob mice) were administered the [Lys^39-MHA]exendin-4/Angiopep-2-Cys-NH2 conjugate (Exen-An2).
A 1.6 μg/kg dose of Exen-An2 is equivalent to a 1 μg/kg dose of exendin-4. The body weight of each mouse was measured daily. Food intake was estimated based on the mean values for each group, and glycemia was measured one hour following treatment.

[3] = tested on: DIO mice; experiment: reduction of glycemia in DIO mice after bolus injection; assay type: in vivo, mouse; details: vs control
Procedure: We also tested the ability of the exendin-4-Angiopep-2 dimer conjugate to reduce glycemia in DIO mice. Mice were injected with a bolus containing a control, exendin-4, or the exendin-4-Angiopep-2 dimer conjugate.

[Lys^39-MHA]exendin-4/Angiopep-2-Cys-NH2 [Exen-An2]
brain distribution [1]: 10 ml/100 g/2 min

exendin-4 [reference compound]
body weight gain ([2]; after 10 days, FIG. 5): lower than the control; also recorded: reduce weight gain
food intake ([2]; FIG. 6): reduced; also recorded: reduce food intake
glycemia [3]: reduced glycemia
brain distribution [1]: 0.2 ml/100 g/2 min

— US8921314B2, “Conjugates of GLP-1 agonists and uses thereof” (Angiochem, Inc., priority 2008, dated 2014)
